# Measured values published in US7884136B2, “Modified-release formulations of a bupropion salt” (Biovail Laboratories International S.R.L., priority 2005, dated 2011).
# Like-named read-outs stand apart in the source and are kept apart here.
# Key:
# [1] = Accelerated stability study of bupropion HBr, closed bottles, 40° C./75% RH, 3 and 6 months, HPLC; type: physicochemical; settings: 40° C./R.H. 75%; for Chromatographic purity B) (HPLC): 4) 2-N-(tert-Butyl)-aminopropiophenone / Chromatographic purity B) (HPLC): 5) single unknown impurity (each): LOQ 0.02%, LOD 0.002%; for Chromatographic purity A) (HPLC): 1) 3′-Chloropropiophenone / Chromatographic purity A) (HPLC): 3) 3′-Chlorobenzoic acid / Chromatographic purity A) (HPLC): 2) 3′-Chloro-2-bromopropiophenone: LOQ 0.05%; for Chromatographic purity A) (HPLC): 1) 3′-Chloropropiophenone / Chromatographic purity A) (HPLC): 3) 3′-Chlorobenzoic acid: LOD 0.01%; for Chromatographic purity A) (HPLC): 2) 3′-Chloro-2-bromopropiophenone: LOD 0.04%; for Assay (HPLC): on d.b.; for Description: specification white or almost white crystalline powder; for Chromatographic purity B) (HPLC): 6) total unknown impurities: sum of all impurity peak areas
# Procedure: The samples were prepared in closed bottles and placed in the stability chamber. HPLC analysis was conducted on the samples prior to placing them in the stability chamber (time 0), and after 3 months and 6 months. The amounts of the main degradation products present at time 0 were compared with those amounts present after 3 months and 6 months. […] For each sample tested, at each time period, two different HPLC assays were run. The first assay labelled chromatographic purity A, measured the percentage of three impurities 3′chloropropiophenone, 3′-Chloro-2-bromopropiophenone and 3′-Chlorobenzoic acid. The second assay, labelled chromatographic purity B, measured the percentage of 2-N-(tert-Butyl)-aminopropiophenone, a single unknown impurity and the total unknown impurities.
# [2] = cited from earlier work
# [3] = Lower Alcohol Fatty Acid Ester Surfactants, as reported by the manufacturer
# [4] = Mono- and Diglyceride Surfactants
# [5] = Transesterification Products of Oils and Alcohols
# [6] = Propylene Glycol Fatty Acid Esters
# [7] = Ionic Surfactants, as reported by the manufacturer
# [8] = PEG-Fatty Acid Monoester Surfactants
compound,measurement,setting,value
Br.CC(NC(C)(C)C)C(=O)c1cccc(Cl)c1 (stereo not shown) [Bupropion.HBr D00894],Chromatographic purity (HPLC: A + B) Total impurities,[1]; 3 month,0.1%
same,Water content (K.F.),[1]; 3 month,0.07%
same,Chromatographic purity B) (HPLC): 4) 2-N-(tert-Butyl)-aminopropiophenone,[1]; 3 month,4)0.03%
same,Chromatographic purity B) (HPLC): 5) single unknown impurity (each),[1]; 3 month,5) 0.04%
same,Chromatographic purity A) (HPLC): 1) 3′-Chloropropiophenone,[1]; 3 month,1) n.q.
same,Chromatographic purity A) (HPLC): 3) 3′-Chlorobenzoic acid,[1]; 3 month,3) n.q.
same,Chromatographic purity A) (HPLC): 2) 3′-Chloro-2-bromopropiophenone,[1]; 3 month,2) n.d.
same,Assay (HPLC),[1]; 3 month,99.6%
same,Description,[1]; 3 month,conform
same,Chromatographic purity B) (HPLC): 6) total unknown impurities,[1]; 3 month,6) 0.06%
same,Chromatographic purity (HPLC: A + B) Total impurities,[1]; 6 months,0.1%
same,Water content (K.F.),[1]; 6 months,0.08%
same,Chromatographic purity B) (HPLC): 4) 2-N-(tert-Butyl)-aminopropiophenone,[1]; 6 months,4) 0.04%
same,Chromatographic purity B) (HPLC): 5) single unknown impurity (each),[1]; 6 months,5) n.q.
same,Chromatographic purity A) (HPLC): 1) 3′-Chloropropiophenone,[1]; 6 months,1) 0.05%
same,Chromatographic purity A) (HPLC): 3) 3′-Chlorobenzoic acid,[1]; 6 months,3) n.q.
same,Chromatographic purity A) (HPLC): 2) 3′-Chloro-2-bromopropiophenone,[1]; 6 months,2) n.d.
same,Description,[1]; 6 months,conform
same,Chromatographic purity (HPLC: A + B) Total impurities,[1]; time 0,0.1%
same,Water content (K.F.),[1]; time 0,0.05%
same,Chromatographic purity B) (HPLC): 4) 2-N-(tert-Butyl)-aminopropiophenone,[1]; time 0,4) 0.04%
same,Chromatographic purity B) (HPLC): 5) single unknown impurity (each),[1]; time 0,5) 0.04%
same,Chromatographic purity A) (HPLC): 1) 3′-Chloropropiophenone,[1]; time 0,1) n.d.
same,Chromatographic purity A) (HPLC): 3) 3′-Chlorobenzoic acid,[1]; time 0,3) n.q.
same,Chromatographic purity A) (HPLC): 2) 3′-Chloro-2-bromopropiophenone,[1]; time 0,2) n.d.
same,Assay (HPLC),[1]; time 0,99.6%
same,Description,[1]; time 0,conform
same,Chromatographic purity B) (HPLC): 6) total unknown impurities,[1]; time 0,6) 0.04%
Br.CC(NC(C)(C)C)C(=O)c1cccc(Cl)c1 (stereo not shown) [Bupropion.HBr D00895],Chromatographic purity (HPLC: A + B) Total impurities,[1]; 3 month,0.1%
same,Water content (K.F.),[1]; 3 month,0.07%
same,Chromatographic purity B) (HPLC): 4) 2-N-(tert-Butyl)-aminopropiophenone,[1]; 3 month,4) 0.03%
same,Chromatographic purity B) (HPLC): 5) single unknown impurity (each),[1]; 3 month,5) 0.04%
same,Chromatographic purity A) (HPLC): 1) 3′-Chloropropiophenone,[1]; 3 month,1) n.q.
same,Chromatographic purity A) (HPLC): 3) 3′-Chlorobenzoic acid,[1]; 3 month,3) 0.05%
same,Chromatographic purity A) (HPLC): 2) 3′-Chloro-2-bromopropiophenone,[1]; 3 month,2) n.d.
same,Assay (HPLC),[1]; 3 month,100.7%
same,Description,[1]; 3 month,conform
same,Chromatographic purity B) (HPLC): 6) total unknown impurities,[1]; 3 month,6) 0.05%
same,Chromatographic purity (HPLC: A + B) Total impurities,[1]; 6 months,0.1%
same,Water content (K.F.),[1]; 6 months,0.07%
same,Chromatographic purity B) (HPLC): 4) 2-N-(tert-Butyl)-aminopropiophenone,[1]; 6 months,4) 0.04%
same,Chromatographic purity B) (HPLC): 5) single unknown impurity (each),[1]; 6 months,5) n.q.
same,Chromatographic purity A) (HPLC): 1) 3′-Chloropropiophenone,[1]; 6 months,1) 0.05%
same,Chromatographic purity A) (HPLC): 3) 3′-Chlorobenzoic acid,[1]; 6 months,3) n.q.
same,Chromatographic purity A) (HPLC): 2) 3′-Chloro-2-bromopropiophenone,[1]; 6 months,2) n.d.
same,Assay (HPLC),[1]; 6 months,99.7%
same,Description,[1]; 6 months,conform
same,Chromatographic purity B) (HPLC): 6) total unknown impurities,[1]; 6 months,6) 0.02%
same,Chromatographic purity (HPLC: A + B) Total impurities,[1]; time 0,0.1%
same,Water content (K.F.),[1]; time 0,0.04%
same,Chromatographic purity B) (HPLC): 4) 2-N-(tert-Butyl)-aminopropiophenone,[1]; time 0,4) 0.04%
same,Chromatographic purity B) (HPLC): 5) single unknown impurity (each),[1]; time 0,5) 0.04%
same,Chromatographic purity A) (HPLC): 1) 3′-Chloropropiophenone,[1]; time 0,1) n.d.
same,Chromatographic purity A) (HPLC): 3) 3′-Chlorobenzoic acid,[1]; time 0,3) n.q.
same,Chromatographic purity A) (HPLC): 2) 3′-Chloro-2-bromopropiophenone,[1]; time 0,2) n.d.
same,Assay (HPLC),[1]; time 0,99.2%
same,Description,[1]; time 0,conform
Br.CC(NC(C)(C)C)C(=O)c1cccc(Cl)c1 (stereo not shown) [Bupropion.HBr D00896],Chromatographic purity (HPLC: A + B) Total impurities,[1]; 3 month,0.1%
same,Water content (K.F.),[1]; 3 month,0.11%
same,Chromatographic purity B) (HPLC): 4) 2-N-(tert-Butyl)-aminopropiophenone,[1]; 3 month,4) 0.03%
same,Chromatographic purity B) (HPLC): 5) single unknown impurity (each),[1]; 3 month,5) 0.04%
same,Chromatographic purity A) (HPLC): 1) 3′-Chloropropiophenone,[1]; 3 month,1) n.q.
same,Chromatographic purity A) (HPLC): 3) 3′-Chlorobenzoic acid,[1]; 3 month,3) n.q.
same,Chromatographic purity A) (HPLC): 2) 3′-Chloro-2-bromopropiophenone,[1]; 3 month,2) n.d.
same,Assay (HPLC),[1]; 3 month,100.0%
same,Description,[1]; 3 month,conform
same,Chromatographic purity (HPLC: A + B) Total impurities,[1]; 6 months,0.1%
same,Water content (K.F.),[1]; 6 months,0.04%
same,Chromatographic purity B) (HPLC): 4) 2-N-(tert-Butyl)-aminopropiophenone,[1]; 6 months,4) 0.04%
same,Chromatographic purity B) (HPLC): 5) single unknown impurity (each),[1]; 6 months,5) n.q.
same,Chromatographic purity A) (HPLC): 1) 3′-Chloropropiophenone,[1]; 6 months,1) 0.05%
same,Chromatographic purity A) (HPLC): 3) 3′-Chlorobenzoic acid,[1]; 6 months,3) n.q.
same,Chromatographic purity A) (HPLC): 2) 3′-Chloro-2-bromopropiophenone,[1]; 6 months,2) n.d.
same,Assay (HPLC),[1]; 6 months,100.4%
same,Description,[1]; 6 months,conform
same,Chromatographic purity B) (HPLC): 6) total unknown impurities,[1]; 6 months,6) n.q.
same,Chromatographic purity (HPLC: A + B) Total impurities,[1]; time 0,0.1%
same,Water content (K.F.),[1]; time 0,0.06%
same,Chromatographic purity B) (HPLC): 4) 2-N-(tert-Butyl)-aminopropiophenone,[1]; time 0,4) 0.04%
same,Chromatographic purity B) (HPLC): 5) single unknown impurity (each),[1]; time 0,5) 0.05%
same,Chromatographic purity A) (HPLC): 1) 3′-Chloropropiophenone,[1]; time 0,1) n.d.
same,Chromatographic purity A) (HPLC): 3) 3′-Chlorobenzoic acid,[1]; time 0,3) n.q.
same,Chromatographic purity A) (HPLC): 2) 3′-Chloro-2-bromopropiophenone,[1]; time 0,2) n.d.
same,Assay (HPLC),[1]; time 0,99.3%
same,Description,[1]; time 0,conform
same,Chromatographic purity B) (HPLC): 6) total unknown impurities,[1]; time 0,6) 0.05%
CCCCC/C=C\C/C=C\CCCCCCCC(=O)OCC [Ethyl linoleate],HLB,[2]; [3],<10
CCCCCCCC/C=C\CCCCCCCC(=O)OCC [Ethyl oleate],HLB,[2]; [3],<10
CCCCC/C=C\C/C=C\CCCCCCCC(=O)OCC(O)CO (stereo not shown) [Glycerol monolinoleate],HLB,[2]; [4],3-4
CCCCCCCCCCCCCCCC(=O)OCC(O)CO (stereo not shown) [Glycerol monopalmitate],HLB,[2]; [4],4
CCCCCCCCCCCCCCCCCC(=O)OCC(O)CO (stereo not shown) [Glycerol monostearate],HLB,[2]; [4],5-9
CC(=O)OCC(O)CO (stereo not shown) [Glyceryl acetate],HLB,[2]; [4],<10
CCCCCCCC(=O)OCC(O)CO (stereo not shown) [Glyceryl caprylate],HLB,[2]; [4],5-6
CCCCCCCCCCCC(=O)OCC(O)CO (stereo not shown) [Glyceryl laurate],HLB,[2]; [4],4
CCCCCCCCCCCC(=O)OCC(O)CO (stereo not shown) [Glyceryl monolaurate],HLB,[2]; [4],6.8
CCCCCCCCCCCCCC(=O)OCC(O)CO (stereo not shown) [Glyceryl monomyristate (C14)],HLB,[2]; [4],3-4
CCCCCCCC/C=C\CCCCCCCC(=O)OCC(O)CO (stereo not shown) [Glyceryl monooleate],HLB,[2]; [4],3-4
CCCCCC[C@@H](O)C/C=C\CCCCCCCC(=O)OCC(O)CO (stereo partly shown) [Glyceryl ricinoleate],HLB,[2]; [4],6
CCCCC/C=C\C/C=C\CCCCCCCC(=O)OC(C)C [Isopropyl linoleate],HLB,[2]; [3],<10
CCCCCCCCCCCCCC(=O)OC(C)C [Isopropyl myristate],HLB,[2]; [3],<10
CCCCCCCCCC(=O)OCC(O)CO (stereo not shown) [Monocaprin],HLB,[2]; [4],<10
CCCCCC(=O)OCC(O)CO (stereo not shown) [Monocaproin (C6)],HLB,[2]; [4],<10
CCCCCCCC(=O)OCC(O)CO (stereo not shown) [Monocaprylin],HLB,[2]; [4],<10
CCCCCCCC/C=C/CCCCCCCC(=O)OCC(O)CO (stereo not shown) [Monoelaidin (C18:1)],HLB,[2]; [4],<10
CCCCCCCCCCCC(=O)OCC(O)CO (stereo not shown) [Monolaurin],HLB,[2]; [4],<10
CCCCCCCCCCCCCCCCCC(=O)OCC(CO)(CO)COC(=O)CCCCCCCCCCCCCCCCC [Pentaerythrityl distearate],HLB,[2]; [5],<10
CCCCCCCC/C=C\CCCCCCCC(=O)OCC(COC(=O)CCCCCCC/C=C\CCCCCCCC)(COC(=O)CCCCCCC/C=C\CCCCCCCC)COC(=O)CCCCCCC/C=C\CCCCCCCC [Pentaerythrityl tetraoleate],HLB,[2]; [5],<10
CCCCCCCCCCCCCCCCCC(=O)OCC(COC(=O)CCCCCCCCCCCCCCCCC)(COC(=O)CCCCCCCCCCCCCCCCC)COC(=O)CCCCCCCCCCCCCCCCC [Pentaerythrityl tetrastearate],HLB,[2]; [5],<10
CCCCCCCCCC(=O)OCC(C)OC(=O)CCCCCCCCC (stereo not shown) [Propylene glycol dicaprate],HLB,[2]; [6],>6
CCCCCCCC(=O)OCC(C)OC(=O)CCCCCCC (stereo not shown) [Propylene glycol dicaprylate],HLB,[2]; [6],>6
CCCCCCCCCCCC(=O)OCC(C)OC(=O)CCCCCCCCCCC (stereo not shown) [Propylene glycol dilaurate],HLB,[2]; [6],>6
CCCCCCCCCCCCCCCCCC(=O)OCC(C)OC(=O)CCCCCCCCCCCCCCCCC (stereo not shown) [Propylene glycol distearate],HLB,[2]; [6],>6
CCCCCCCCCCCCOS(=O)(=O)[O-].[Na+] [Sodium lauryl sulfate (dodecyl)],HLB,[2]; [7],40
CCCCCCCC/C=C\CCCCCCCC(=O)[O-].[Na+] [Sodium oleate],HLB,[2]; [7],18
CCCCCCCCCCCCCCCC(=O)OC[C@@H](O)[C@H]1OC[C@H](O)[C@H]1O [Sorbitan monopalmitate],HLB,"[2]; Sorbitan Fatty Acid Ester Surfactants, as reported by the manufacturer",6.7
Distearin,HLB,[2]; [4],<10
Glyceryl dioleate,HLB,[2]; [4],3-4
Glyceryl monostearate,HLB,[2]; [4],4.4
PEG 4-100 monolaurate,HLB,[2]; [8],>9
PEG 4-100 monooleate,HLB,[2]; [8],>8
PEG 4-100 monostearate,HLB,[2]; [8],>6
"PEG 100, 200, 300 monolaurate",HLB,[2]; [8],>10
"PEG 100, 200, 300 monooleate",HLB,[2]; [8],>10
PEG 400 dioleate,HLB,[2]; [8],>10
PEG 400 distearate,HLB,[2]; [8],>10
PEG 400-1000 monostearate,HLB,[2]; [8],>10
PEG-1 stearate,HLB,[2]; [8],2
